Experimental data: patent publication US20130071415A1, “Heterocyclic Compounds as Janus Kinase Inhibitors” (BioCryst Pharmaceuticals, Inc., priority 2010, published 2013)
Structures can show the parent of a compound that is named as a salt.

melting point: 245.8 °C
SMILES: c1cc2c(-c3cn[nH]c3)ncnn2c1 (as salt: HCl) [Compound 13c, 4-(1H-Pyrazol-4-yl)pyrrolo[1,2-f][1,2,4]triazine]
